Measured values published in patent US10131652B2, “Pyrimidinyloxy benzene derivatives as herbicides” (E. I. DU PONT DE NEMOURS AND COMPANY, priority 2014, dated 2018).
Read-outs that look alike come from different tables or passages of the source.

Key:
Assay in all cases: Test F pre-/postemergence plant response
Format in all cases: in vivo
[1] = test system: arrowleaf sida (Sida rhombifolia); conditions: Sida rhombifolia, scale 0 to 100, read-out: Plant response rating, Arrowleaf Sida
How it was run: (§1)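 Values are visual ratings, where 100 is complete control and 0 is no effect, given after 14 to 21 days of greenhouse growth. Test chemicals in a non-phytotoxic, surfactant-containing solvent were sprayed on soil just after planting or on emerged seedlings at the 1- to 4-leaf stage.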

[2] = test system: barnyardgrass (Echinochloa crus-galli); conditions: Echinochloa crus-galli, scale 0 to 100, read-out: Plant response rating, Barnyardgrass
How it was run: as §1

[3] = test system: dayflower (Virginia (VA) dayflower, Commelina virginica); conditions: Commelina virginica, scale 0 to 100, read-out: Plant response rating, Dayflower, VA
How it was run: as §1

[4] = test system: field bindweed (Convolvulus arvensis); conditions: Convolvulus arvensis, scale 0 to 100, read-out: Plant response rating, Field Bindweed
How it was run: as §1

[5] = test system: giant foxtail (Setaria faberii); conditions: Setaria faberi, pre-emergence, scale 0 to 100, read-out: Plant response rating, Foxtail, Giant
How it was run: as §1

[6] = test system: goosegrass (Eleusine indica); conditions: Eleusine indica, pre-emergence, scale 0 to 100, read-out: Plant response rating, Goosegrass
How it was run: as §1

[7] = test system: hairy beggarticks (Bidens pilosa); conditions: Bidens pilosa, scale 0 to 100, read-out: Plant response rating, Beggarticks
How it was run: as §1

[8] = test system: johnsongrass (Sorghum halepense); conditions: Sorghum halepense, pre-emergence, scale 0 to 100, read-out: Plant response rating, Johnsongrass
How it was run: as §1

[9] = test system: large (Lg) crabgrass (Digitaria sanguinalis); conditions: Digitaria sanguinalis, pre-emergence, scale 0 to 100, read-out: Plant response rating, Crabgrass, Large
How it was run: as §1

[10] = test system: sandbur (southern sandbur, Cenchrus echinatus); conditions: Cenchrus echinatus, scale 0 to 100, read-out: Plant response rating, Sandbur
How it was run: as §1

[11] = test system: soybean (Glycine max); conditions: Glycine max, scale 0 to 100, read-out: Plant response rating, Soybean
How it was run: as §1

[12] = test system: surinam grass (Brachiaria decumbens); conditions: Urochloa decumbens, pre-emergence, scale 0 to 100, read-out: Plant response rating, Surinam Grass
How it was run: as §1

[13] = test system: velvetleaf (Abutilon theophrasti); conditions: Abutilon theophrasti, pre-emergence, scale 0 to 100, read-out: Plant response rating, Velvetleaf
How it was run: as §1

[14] = test system: waterhemp (common waterhemp, Amaranthus rudis); conditions: Amaranthus tuberculatus, scale 0 to 100, read-out: Plant response rating, Waterhemp
How it was run: as §1

[15] = test system: wild poinsettia (Euphorbia heterophylla); conditions: Euphorbia heterophylla, scale 0 to 100, read-out: Plant response rating, Poinsettia, Wild
How it was run: as §1

[16] = test system: yellow nutsedge (Cyperus esculentus); conditions: Cyperus, pre-emergence, scale 0 to 100, read-out: Plant response rating, Nutsedge, Yellow
How it was run: as §1

[17] = post-emergence, 8 g ai/ha Postemergence
[18] = post-emergence, 16 g ai/ha Postemergence
[19] = post-emergence, 31 g ai/ha Postemergence
[20] = post-emergence, 62 g ai/ha Postemergence
[21] = post-emergence, 125 g ai/ha Postemergence
[22] = pre-emergence, 8 g ai/ha Preemergence
[23] = pre-emergence, 16 g ai/ha Preemergence
[24] = pre-emergence, 31 g ai/ha Preemergence
[25] = pre-emergence, 62 g ai/ha Preemergence
[26] = pre-emergence, 125 g ai/ha Preemergence

FC(F)c1cc(-c2ccccc2Oc2ncc(Cl)cn2)no1 [Compound 35, 5-chloro-2-[2-[5-(difluoromethyl)-3-isoxazolyl]phenoxy]pyrimidine]
50%: pest or weed control at 8 g/ha [1, 22] | pest or weed control at 62 g/ha [3, 20] | pest or weed control at 62 g/ha [4, 20] | pest or weed control at 31 g/ha [4, 24] | pest or weed control at 62 g/ha [4, 25] | pest or weed control at 125 g/ha [4, 26] | pest or weed control at 8 g/ha [7, 17] | pest or weed control at 16 g/ha [7, 18] | pest or weed control at 125 g/ha [7, 26] | pest or weed control at 31 g/ha [15, 19] | pest or weed control at 62 g/ha [15, 20]
80%: pest or weed control at 16 g/ha [1, 18] | pest or weed control at 16 g/ha [1, 23] | pest or weed control at 125 g/ha [3, 21] | plant injury at 16 g/ha [11, 18] | pest or weed control at 125 g/ha [15, 21]
98%: pest or weed control at 62 g/ha [1, 20] | pest or weed control at 125 g/ha [1, 21] | plant injury at 125 g/ha [11, 21]
70%: pest or weed control at 125 g/ha [4, 21] | pest or weed control at 31 g/ha ([5]; 31 g ai/ha Preemergence) | pest or weed control at 62 g/ha ([5]; 62 g ai/ha Preemergence) | pest or weed control at 125 g/ha [7, 21] | plant injury at 8 g/ha [11, 17] | plant injury at 62 g/ha ([11]; pre-emergence, Preemergence) | pest or weed control at 16 g/ha ([13]; 16 g ai/ha Preemergence) | pest or weed control at 31 g/ha ([13]; 31 g ai/ha Preemergence) | pest or weed control at 8 g/ha [14, 17] | pest or weed control at 62 g/ha ([15]; pre-emergence, Preemergence)
20%: pest or weed control at 125 g/ha [2, 21] | pest or weed control at 31 g/ha [2, 24] | pest or weed control at 8 g/ha [4, 17] | pest or weed control at 31 g/ha [7, 24] | pest or weed control at 62 g/ha [7, 25] | pest or weed control at 62 g/ha ([12]; Preemergence) | pest or weed control at 8 g/ha [15, 22]
100%: pest or weed control at 31 g/ha [1, 24] | pest or weed control at 62 g/ha [1, 25] | pest or weed control at 125 g/ha [1, 26] | pest or weed control at 125 g/ha ([5]; 125 g ai/ha Preemergence) | pest or weed control at 125 g/ha ([9]; 125 g ai/ha Preemergence) | pest or weed control at 125 g/ha ([13]; 125 g ai/ha Preemergence) | pest or weed control at 62 g/ha ([13]; Preemergence) | pest or weed control at 62 g/ha [14, 20] | pest or weed control at 125 g/ha [14, 21] | pest or weed control at 8 g/ha [14, 22] | pest or weed control at 16 g/ha [14, 23] | pest or weed control at 31 g/ha [14, 24] | pest or weed control at 125 g/ha [14, 26] | pest or weed control at 62 g/ha ([14]; pre-emergence, Preemergence)
85%: plant injury at 31 g/ha [11, 19] | pest or weed control at 16 g/ha [14, 18]
35%: pest or weed control at 31 g/ha [4, 19] | pest or weed control at 16 g/ha [4, 23] | pest or weed control at 62 g/ha ([8]; Preemergence) | plant injury at 16 g/ha [11, 23] | pest or weed control at 125 g/ha ([12]; 125 g ai/ha Preemergence) | pest or weed control at 31 g/ha [15, 24] | pest or weed control at 125 g/ha ([16]; 125 g ai/ha Preemergence)
40%: pest or weed control at 16 g/ha [3, 18] | pest or weed control at 31 g/ha [3, 19] | pest or weed control at 62 g/ha ([10]; pre-emergence, Preemergence) | plant injury at 31 g/ha [11, 24] | pest or weed control at 8 g/ha ([13]; 8 g ai/ha Preemergence) | pest or weed control at 16 g/ha [15, 18] | pest or weed control at 125 g/ha [15, 26]
75%: pest or weed control at 62 g/ha ([6]; Preemergence) | pest or weed control at 31 g/ha ([9]; 31 g ai/ha Preemergence) | pest or weed control at 62 g/ha ([9]; 62 g ai/ha Preemergence)
90%: pest or weed control at 62 g/ha [3, 25] | plant injury at 125 g/ha [11, 26] | pest or weed control at 31 g/ha [14, 19]
95%: pest or weed control at 31 g/ha [1, 19] | pest or weed control at 125 g/ha [3, 26] | pest or weed control at 125 g/ha ([6]; 125 g ai/ha Preemergence) | plant injury at 62 g/ha [11, 20]
60%: pest or weed control at 8 g/ha [1, 17] | pest or weed control at 31 g/ha ([6]; 31 g ai/ha Preemergence) | pest or weed control at 31 g/ha [7, 19] | pest or weed control at 16 g/ha ([9]; 16 g ai/ha Preemergence)
10%: pest or weed control at 62 g/ha [2, 20] | pest or weed control at 62 g/ha [2, 25] | pest or weed control at 8 g/ha [3, 17] | pest or weed control at 16 g/ha ([5]; 16 g ai/ha Preemergence) | pest or weed control at 16 g/ha [10, 23] | pest or weed control at 31 g/ha [10, 24] | pest or weed control at 62 g/ha ([16]; Preemergence)
0%: pest or weed control at 8 g/ha [2, 17] | pest or weed control at 16 g/ha [2, 18] | pest or weed control at 31 g/ha [2, 19] | pest or weed control at 8 g/ha [2, 22] | pest or weed control at 16 g/ha [2, 23] | pest or weed control at 8 g/ha [3, 22] | pest or weed control at 8 g/ha [4, 22] | pest or weed control at 8 g/ha ([5]; 8 g ai/ha Preemergence) | pest or weed control at 8 g/ha ([6]; 8 g ai/ha Preemergence) | pest or weed control at 16 g/ha ([6]; 16 g ai/ha Preemergence) | pest or weed control at 8 g/ha [7, 22] | pest or weed control at 16 g/ha [7, 23] | pest or weed control at 8 g/ha ([8]; 8 g ai/ha Preemergence) | pest or weed control at 16 g/ha ([8]; 16 g ai/ha Preemergence) | pest or weed control at 31 g/ha ([8]; 31 g ai/ha Preemergence) | pest or weed control at 8 g/ha ([9]; 8 g ai/ha Preemergence) | pest or weed control at 8 g/ha [10, 17] | pest or weed control at 16 g/ha [10, 18] | pest or weed control at 31 g/ha [10, 19] | pest or weed control at 62 g/ha [10, 20] | pest or weed control at 125 g/ha [10, 21] | pest or weed control at 8 g/ha [10, 22] | plant injury at 8 g/ha [11, 22] | pest or weed control at 8 g/ha ([12]; 8 g ai/ha Preemergence) | pest or weed control at 16 g/ha ([12]; 16 g ai/ha Preemergence) | pest or weed control at 31 g/ha ([12]; 31 g ai/ha Preemergence) | pest or weed control at 8 g/ha ([16]; 8 g ai/ha Preemergence) | pest or weed control at 16 g/ha ([16]; 16 g ai/ha Preemergence) | pest or weed control at 31 g/ha ([16]; 31 g ai/ha Preemergence)
25%: pest or weed control at 16 g/ha [3, 23]
65%: pest or weed control at 125 g/ha [2, 26] | pest or weed control at 31 g/ha [3, 24] | pest or weed control at 62 g/ha [7, 20] | pest or weed control at 125 g/ha ([8]; 125 g ai/ha Preemergence) | pest or weed control at 125 g/ha [10, 26]
30%: pest or weed control at 16 g/ha [4, 18] | pest or weed control at 8 g/ha [15, 17] | pest or weed control at 16 g/ha [15, 23]
